According to US20130102619A1, “2-PYRIDYLOXY-4-NITRILE OREXIN RECEPTOR ANTAGONISTS” (priority 2011, published 2013):
pIC50, pKi: −log10 of the molar value.

Key:
human orexin-2 receptor [1] = target: T1, human orexin-2 receptor (Homo sapiens (Human), UniProt O43614); experiment: radioligand binding assay, orexin-2 receptor (membranes from CHO cells); details: CHO cell membranes, read-out: hOX2 hKi
Description: (§1) The utility of the compounds in accordance with the present invention as orexin receptor OX1R and/or OX2R antagonists may be readily determined without undue experimentation by methodology well known in the art, including the “FLIPR Ca^2+ Flux Assay” (Okumura et al., Biochem. Biophys. Res. Comm. 280:976-981, 2001). In a typical experiment the OX1 and OX2 receptor antagonistic activity of the compounds of the present invention was determined in accordance with the following experimental method. For intracellular calcium measurements, Chinese hamster ovary (CHO) cells expressing the rat orexin-1 receptor or the human orexin-2 receptor, are grown in Iscove's modified DMEM containing 2 mM L-glutamine, […], 1% hypoxanthine-thymidine supplement, 100 U/ml penicillin, 100 ug/ml streptomycin and 10% heat-inactivated fetal calf serum (FCS). The cells are seeded at 20,000 cells/well into Becton-Dickinson black 384-well clear bottom sterile plates coated with poly-D-lysine. All reagents were from GIBCO-Invitrogen Corp. The seeded plates are incubated overnight at 37° C. and 5% CO2. Ala-6,12 human orexin-A as the agonist is prepared as a 1 mM stock solution in 1% bovine serum albumin (BSA) and diluted in assay buffer (HBSS containing 20 mM HEPES, 0.1% BSA and 2.5 mM probenecid, pH7.4) for use in the assay at a final concentration of 70 pM. Test compounds are prepared as 10 mM stock solution in DMSO, then diluted in 384-well plates, first in DMSO, then assay buffer. On the day of the assay, cells are washed 3 times with 100 ul assay buffer and then incubated for 60 min (37° C., 5% CO2) in 60 ul assay buffer containing 1 uM Fluo-4AM ester, 0.02% pluronic acid, and 1% BSA. The dye loading solution is then aspirated and cells are washed 3 times with 100 ul assay buffer. 30 ul of that same buffer is left in each well. Within the Fluorescent Imaging Plate Reader (FLIPR, Molecular Devices), test compounds are added to the plate in a volume of 25 ul, incubated for 5 min and finally 25 ul of agonist is added. Fluorescence is measured for each well at 1 second intervals for 5 minutes and the height of each fluorescence peak is compared to the height of the fluorescence peak induced by 70 pM Ala-6,12 orexin-A with buffer in place of antagonist. […] Alternatively, compound potency can be assessed by a radioligand binding assay (described in Bergman et. al. Bioorg. Med. Chem. Lett. 2008, 18, 1425-1430) in which the inhibition constant (Ki) is determined in membranes prepared from CHO cells expressing either the OX1 or OX2 receptor. The intrinsic orexin receptor antagonist activity of a compound which may be used in the present invention may be determined by these assays.

OX1 receptor (hOX1) = OX1 receptor (hOX1) (Homo sapiens, UniProt O43613); experiment: radioligand binding assay, orexin-1 receptor (membranes from CHO cells); details: CHO cell membranes, read-out: hOX1 hKi
Description: In a typical experiment the OX1 and OX2 receptor antagonistic activity of the compounds of the present invention was determined in accordance with the following experimental method. For intracellular calcium measurements, Chinese hamster ovary (CHO) cells expressing the rat orexin-1 receptor or the human orexin-2 receptor, are grown in Iscove's modified DMEM containing 2 mM L-glutamine, […], 1% hypoxanthine-thymidine supplement, 100 U/ml penicillin, 100 ug/ml streptomycin and 10% heat-inactivated fetal calf serum (FCS). The cells are seeded at 20,000 cells/well into Becton-Dickinson black 384-well clear bottom sterile plates coated with poly-D-lysine. All reagents were from GIBCO-Invitrogen Corp. The seeded plates are incubated overnight at 37° C. and 5% CO2. Ala-6,12 human orexin-A as the agonist is prepared as a 1 mM stock solution in 1% bovine serum albumin (BSA) and diluted in assay buffer (HBSS containing 20 mM HEPES, 0.1% BSA and 2.5 mM probenecid, pH7.4) for use in the assay at a final concentration of 70 pM. Test compounds are prepared as 10 mM stock solution in DMSO, then diluted in 384-well plates, first in DMSO, then assay buffer. On the day of the assay, cells are washed 3 times with 100 ul assay buffer and then incubated for 60 min (37° C., 5% CO2) in 60 ul assay buffer containing 1 uM Fluo-4AM ester, 0.02% pluronic acid, and 1% BSA. The dye loading solution is then aspirated and cells are washed 3 times with 100 ul assay buffer. 30 ul of that same buffer is left in each well. Within the Fluorescent Imaging Plate Reader (FLIPR, Molecular Devices), test compounds are added to the plate in a volume of 25 ul, incubated for 5 min and finally 25 ul of agonist is added. Fluorescence is measured for each well at 1 second intervals for 5 minutes and the height of each fluorescence peak is compared to the height of the fluorescence peak induced by 70 pM Ala-6,12 orexin-A with buffer in place of antagonist. […] Alternatively, compound potency can be assessed by a radioligand binding assay (described in Bergman et. al. Bioorg. Med. Chem. Lett. 2008, 18, 1425-1430) in which the inhibition constant (Ki) is determined in membranes prepared from CHO cells expressing either the OX1 or OX2 receptor. The intrinsic orexin receptor antagonist activity of a compound which may be used in the present invention may be determined by these assays.

human orexin-2 receptor [2] = target: T1, human orexin-2 receptor; experiment: FLIPR Ca2+ Flux Assay, CHO cells expressing human orexin-2 receptor; assay type: cell-based; details: 70 pM Ala-6,12 orexin-A agonist, read-out: hOX2R FLIPR IC50
Description: as §1

rat orexin-1 receptor = rat orexin-1 receptor (Rattus norvegicus (Rat), UniProt P56718); experiment: FLIPR Ca2+ Flux Assay, CHO cells expressing rat orexin-1 receptor; assay type: cell-based; details: 70 pM Ala-6,12 orexin-A agonist, read-out: hOX1R FLIPR IC50;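 note: concentration giving 50% inhibition of the agonist-induced calcium response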
Description: as §1

T1 sequence (O43614 whole entry): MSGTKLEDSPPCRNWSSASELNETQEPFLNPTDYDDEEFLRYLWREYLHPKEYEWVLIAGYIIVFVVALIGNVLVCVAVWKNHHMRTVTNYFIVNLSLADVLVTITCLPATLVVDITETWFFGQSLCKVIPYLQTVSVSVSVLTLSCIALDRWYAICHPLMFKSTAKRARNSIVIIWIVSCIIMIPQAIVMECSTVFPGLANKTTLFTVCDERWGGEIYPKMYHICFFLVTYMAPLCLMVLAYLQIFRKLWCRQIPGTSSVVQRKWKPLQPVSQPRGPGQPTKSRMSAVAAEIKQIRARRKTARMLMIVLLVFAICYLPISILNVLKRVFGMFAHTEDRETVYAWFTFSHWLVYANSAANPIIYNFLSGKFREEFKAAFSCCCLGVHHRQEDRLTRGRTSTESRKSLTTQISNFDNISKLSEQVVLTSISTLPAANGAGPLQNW
Chain of rat orexin-1 receptor (P56718 whole entry): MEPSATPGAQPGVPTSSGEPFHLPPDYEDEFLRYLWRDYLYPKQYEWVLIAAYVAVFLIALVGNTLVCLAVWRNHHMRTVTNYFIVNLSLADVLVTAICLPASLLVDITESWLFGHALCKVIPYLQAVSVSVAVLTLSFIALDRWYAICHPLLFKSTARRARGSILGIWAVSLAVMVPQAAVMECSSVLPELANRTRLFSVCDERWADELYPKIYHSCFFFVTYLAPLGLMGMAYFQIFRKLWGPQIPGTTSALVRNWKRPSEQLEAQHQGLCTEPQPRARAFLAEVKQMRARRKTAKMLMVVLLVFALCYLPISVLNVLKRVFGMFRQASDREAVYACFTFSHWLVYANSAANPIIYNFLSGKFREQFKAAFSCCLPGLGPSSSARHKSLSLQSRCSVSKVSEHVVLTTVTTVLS

| SMILES | pKi (human orexin-2 receptor [1]) | pKi (OX1 receptor (hOX1)) | pIC50 (human orexin-2 receptor [2]) | pIC50 (rat orexin-1 receptor) |
| --- | --- | --- | --- | --- |
| C[C@@H]1CC[C@@H](Oc2cc(C#N)ccn2)CN1C(=O)c1c(F)cccc1-c1ncccn1 [Example 36, 2-({(3R,6R)-1-[(2-fluoro-6-pyimidin-2-ylphenyl)carbonl]-6-methylpiperidin-3-yl}oxy)pyridine-4-carbonitrile] | 8.68 | 6.03 | 7.33 | < 5.00 |
| C[C@@H]1CC[C@@H](Oc2cc(C#N)ccn2)CN1C(=O)c1cccc(F)c1-n1nccn1 [Example 6, 2-{[(3R,6R)-1-{[3-fluoro-2-(2H-1,2,3-triazol-2-yl)phenyl]carbonyl}-6-methylpiperidin-3-yl]oxy}pyridine-4-carbonitrile] | 8.26 | 5.72 | 7.74 | < 5.00 |
| COc1ccc(C(=O)N2C[C@H](Oc3cc(C#N)ccn3)CC[C@H]2C)c(C2CC2)n1 [Example 20, 2-({(3R,6R)-1-[(2-cyclopropyl-6-methoxypyridin-3-yl)carbonyl]-6-methylpiperidin-3-yl}oxy)pyridine-4-carbonitrile] | 7.94 | 4.90 | 7.17 | < 5.00 |
| C[C@@H]1CC[C@@H](Oc2cc(C#N)ccn2)CN1C(=O)c1cc(Br)ccc1-n1nccn1 [Example 15, 2-{[(3R,6R)-1-{[5-bromo-2-(2H-1,2,3-triazol-2-yl)phenyl]carbonyl}-6-methylpiperidin-3-yl]oxy}pyridine-4-carbonitrile] | 8.04 | 6.58 | 7.21 | 5.98 |
| C[C@@H]1CC[C@@H](Oc2cc(C#N)ccn2)CN1C(=O)c1cccc(F)c1-c1ncccn1 [Example 33, 2-({(3R,6R)-1-[(3-fluoro-2-pyrimidin-2-ylphenyl)carbonyl]-6-methylpiperidin-3-yl}oxy)pyridine-4-carbonitrile] | 7.91 | 5.77 | 7.28 | < 5.00 |
| Cc1cccc(-n2nccn2)c1C(=O)N1C[C@H](Oc2cc(C#N)ccn2)CC[C@H]1C [Example 4, 2-{[(3R,6R)-6-methyl-1-{[2-methyl-6-(2H-1,2,3-triazol-2-yl)phenyl]carbonyl}piperidin-3-yl]oxy}pyridine-4-carbonitrile] | 8.64 | 6.03 | 7.54 | < 5.00 |
| C[C@@H]1CC[C@@H](Oc2cc(C#N)ccn2)CN1C(=O)c1ccc(Cl)cc1-n1nccn1 [Example 7, 2-{[(3R,6R)-1-{[4-chloro-2-(2H-1,2,3-triazol-2-yl)phenyl]carbonyl}-6-methylpiperidin-3-yl]oxy}pyridine-4-carbonitrile] | 8.96 | 6.00 | 7.77 | 5.42 |
| C[C@@H]1CC[C@@H](Oc2cc(C#N)ccn2)CN1C(=O)c1ccc(F)cc1-n1nccn1 [Example 8, 2-{[(3R,6R)-1-{[4-fluoro-2-(2H-1,2,3-triazol-2-yl)phenyl]carbonyl}-6-methylpiperidin-3-yl]oxy}pyridine-4-carbonitrile] | 8.46 | 5.54 | 7.54 | < 5.00 |
| Cc1ccc(C(=O)N2C[C@H](Oc3cc(C#N)ccn3)CC[C@H]2C)c(-n2nccn2)c1 [Example 9, 2-{[(3R,6R)-6-methyl-1-{[4-methyl-2-(2H-1,2,3-triazol-2-yl)phenyl]carbonyl}piperidin-3-yl]oxy}pyridine-4-carbonitrile] | 8.43 | 5.90 | 7.66 | 5.15 |
| C[C@@H]1CC[C@@H](Oc2cc(C#N)ccn2)CN1C(=O)c1c(F)cccc1-n1nccn1 [Example 22, 2-{[(3R,6R)-1-{[2-fluoro-6-(2H-1,2,3-triazol-2-yl)phenyl]carbonyl}-6-methylpipeidin-3-yl]oxy}pyridine-4-carbonitrile] | 8.47 | 5.75 | 7.64 | 5.24 |
